# Measurements as given in EPA's ToxValDB 9.5.
# Values joined by “and” are separate entries in the source; they are usually repeats but may differ in a detail not shown here. Equal entries are not always repeated.
# Experiments:
# Rattus norvegicus [1] = details: for LD50 / LC50: acute
# Cricetulus sp. = details: duration: 1 days, injection, Other
# Monkey [2] = details: chronic, duration: 18 months
# Canidae = details: chronic; duration: 23 weeks; oral; gavage; Beagle
# Sus scrofa = details: chronic; duration: 123 days; dermal; Not specified
# Rattus norvegicus [3] = assay: LC0; higher = less toxic; details: acute; inhalation; Sprague-Dawley
# Monkey [4] = details: chronic; duration: 5 years; oral; capsule; Immune system: Toxicity
# Monkey [5] = details: chronic; oral; F; decreased antibody (IgG and IgM) response to sheep erythrocytes + Ocular exudate, inflamed and prominent Meibomian glands, distorted growth …
# Peromyscus polionotus = details: oral
# Neovison sp. = details: repeat dose other; oral; Mink
# Phasianus colchicus = details: oral
# Rattus norvegicus [6] = assay: LD0; higher = less toxic; details: acute; oral; gavage
# Rattus norvegicus [7] = assay: LC10; higher = less toxic; details: acute; inhalation; Sprague-Dawley
# [8] = chronic, duration: 18 months, oral, gavage, Sprague-Dawley
# [9] = subchronic, duration: 13 weeks, inhalation, Sprague-Dawley
# [10] = subchronic, duration: 30 days, dermal, New Zealand
structure (smiles),measurement,setting,value
CS(C)=O [Dimethyl sulfoxide],LD50,Rattus norvegicus [1]; dermal,40000 mg/kg
same,LD50,"Rattus norvegicus [1]; injection, intravenous",5360 mg/kg
same,LD50,"Rattus norvegicus [1]; oral, gavage",28300 mg/kg
same,LOAEL,Rattus norvegicus [1]; [8],9900 mg/kg-day
same,NOAEL,Rattus norvegicus [1]; [8],1100 mg/kg-day
same,NOAEL,"Rattus norvegicus [1]; developmental, duration: 1 days, injection, subcutaneous, Sprague-Dawley",< 10200 mg/kg-day
same,NOAEL,"Rattus norvegicus [1]; reproduction developmental, duration: 6 days, oral, gavage, Wistar, generation: F1",10000 mg/kg-day
same,NOAEL,"Rattus norvegicus [1]; reproduction developmental, duration: 10 days, injection, Intraperitoneal, F",< 2000 mg/kg-day
same,NOAEL,"Rattus norvegicus [1]; reproduction developmental, oral, gavage, Sprague-Dawley, generation: F0",5000 mg/kg-day
same,NOAEL,"Rattus norvegicus [1]; reproduction developmental, oral, gavage, Sprague-Dawley, generation: F1",5000 mg/kg-day
same,NOAEC,"Rattus norvegicus [1]; subchronic, duration: 6 weeks, inhalation, Sprague-Dawley",0.2 mg/L
same,LOAEC,Rattus norvegicus [1]; [9],2.78 mg/L
same,NOAEC,Rattus norvegicus [1]; [9],0.964 mg/L
same,NOAEL,"Cricetulus sp.; developmental, Intraperitoneal",< 5500 mg/kg-day
same,NOAEL,"Cricetulus sp.; developmental, intravenous, intraperitoneal",2500 mg/kg-day
same,NOAEL,"Cricetulus sp.; reproduction developmental, Intraperitoneal, F",< 5500 mg/kg-day
same,NOAEL,"Cricetulus sp.; reproduction developmental, intravenous, intraperitoneal, F",2500 mg/kg-day
same,NOAEL,Monkey [2]; dermal,8910 mg/kg-day
same,LOAEL,"Monkey [2]; oral, gavage",8910 mg/kg-day
same,NOAEL,"Monkey [2]; oral, gavage",2970 mg/kg-day
same,LD50,"Mus musculus; acute, dermal",50000 mg/kg
same,LD50,"Mus musculus; acute, injection, intravenous",3100 mg/kg and 5750 mg/kg
same,LD50,"Mus musculus; acute, oral",≥ 19200 mg/kg and ≤ 22000 mg/kg
same,NOAEL,"Mus musculus; developmental, duration: 7 days, oral, gavage, Swiss",12000 mg/kg-day
same,LOAEL,"Mus musculus; short-term, duration: 3 weeks, oral, gavage, Swiss",2000 mg/kg-day
same,NOAEL,"Mus musculus; subchronic, duration: 5 weeks, injection, Intraperitoneal, Swiss",2500 mg/kg-day
same,LOAEL,Canidae,2500 mg/kg-day
same,NOAEL,Sus scrofa,825 mg/kg-day
same,LOAEL,"Oryctolagus sp.; chronic, duration: 6 months, dermal, New Zealand",1650 mg/kg-day
same,LOAEL,"Oryctolagus sp.; chronic, duration: 22 weeks, dermal, New Zealand",1650 mg/kg-day
same,NOAEL,"Oryctolagus sp.; developmental, duration: 9 days, injection, subcutaneous",4000 mg/kg-day
same,NOAEL,"Oryctolagus sp.; developmental, duration: 9 days, oral, gavage",5000 mg/kg-day
same,NOAEL,"Oryctolagus sp.; developmental, injection, subcutaneous",4000 mg/kg-day
same,LOAEL,Oryctolagus sp.; [10],5000 mg/kg-day
same,NOAEL,Oryctolagus sp.; [10],1000 mg/kg-day
same,NOAEL,"Oryctolagus sp.; subchronic, duration: 90 days, dermal, New Zealand",2200 mg/kg-day
same,LC0,Rattus norvegicus [3],> 2.9 mg/L
Clc1cccc(-c2ccc(Cl)c(Cl)c2Cl)c1Cl [Aroclor 1254],LOAEL,Monkey [4],0.005 mg/kg-day
same,LOAEL,Monkey [5],0.005 mg/kg-day
same,LOAEL,Peromyscus polionotus,0.68 mg/kg-day
same,NOAEL,Peromyscus polionotus,0.068 mg/kg-day
same,LOAEL,Neovison sp.,0.69 mg/kg-day
same,NOAEL,Neovison sp.,0.14 mg/kg-day
same,LOAEL,Phasianus colchicus,1.8 mg/kg-day
same,NOAEL,Phasianus colchicus,0.18 mg/kg-day
"FC(F)(Cl)C(F)(F)Cl [1,2-Dichloro-1,1,2,2-tetrafluoroethane]",LC50,"Mus musculus; acute, inhalation",4.89e+06 mg/m3
same,LD0,Rattus norvegicus [6],> 2250 mg/kg
CC(C)C#N [2-Methylpropanenitrile],LC50,"Rattus norvegicus [1]; inhalation, Sprague-Dawley",> 2830 mg/m3
same,LC50,"Rattus norvegicus [1]; inhalation, albino",≥ 1410 mg/m3 and ≤ 2830 mg/m3
same,LD50,Rattus norvegicus [1]; oral,> 50 mg/kg and ≤ 100 mg/kg
same,LD50,"Rattus norvegicus [1]; oral, gavage",77 mg/kg
same,NOAEL,"Rattus norvegicus [1]; reproduction developmental, duration: 6 days, inhalation, F, Sprague-Dawley",283 mg/m3
same,LD50,"Oryctolagus sp.; acute, dermal, occlusive, New Zealand",239 mg/kg
same,LC10,Rattus norvegicus [7],3320 mg/m3
